“And” between values parts separate entries of the source, which are not always exact repeats. Equal entries are not always repeated.
Columns and labels:
[1] = In vitro EDTA challenge study; type: physicochemical
Experimental: In vitro EDTA challenge study. In vitro EDTA challenge study was carried out by adding 10 µL of each 89Zr-labeled complex (70 μCi, 2.59 MBq) to 500 µL of EDTA (10 mM, 50 mM and 100 mM: pH 5 and pH 7) with a 1:100, 1:500, and 1:1000 ratio of ligand/EDTA. The solutions (n=4) were incubated at 37 °C for 7 days in a thermomixer. Samples were analyzed at 30 min, 1 h, 3 h, 6 h, 1 d, 3 d, 5 d and 7 d post administration to EDTA by radio-TLC using Varian ITLC-SA strips and 0.1 M EDTA (pH 5) as the mobile phase and gamma counting using an energy window of 500-1500 keV and standard protocols .

Biodistribution studies = type: in vivo, female NIH Swiss mice
Experimental: Biodistribution Studies. Biodistribution studies were conducted using a modified literature procedure. 7 Briefly, female NIH Swiss mice (6-8 wk old, n=6) were injected with each 89Zr-labeled complex (0.55 MBq (15 μCi)/mouse) via the tail vein, and sacrificed at 2, 4, 24, 48, 72 h post-injection. Organs and tissues of interest were excised, weighted, and counted on a Perkin Elmer 2480 Wizard® gamma counter (Waltham, MA). The percent injected dose per gram (%ID/g) and percent injected dose per organ (%ID/organ) were calculated by comparison to a weighed, counted standard for each group (Tables S9 – S12).
Statistical Methods. All of the data are presented as mean±SD or mean (95% Confidence Interval). For statistical classification a student’s t test (two-tailed, unpaired) was performed using GraphPad Prism (San Diego, CA). Any p<0.05 was considered significant.

[2] = In vitro metal competition study; type: physicochemical; conditions: for % Intact of 89Zr-complexes: PBS pH 7.4, 37 C
Experimental: In vitro Metal Competition study. To a solution of metal cations [iron (III) chloride, cobalt (II) chloride, zinc (II) chloride, copper (II) chloride, magnesium (II) chloride, gallium (III) nitrate, gadolinium (III) chloride] (1 mM, 200 µL), was added 89Zr-labeled complex (0.1 mM, 10 µL, 80 μCi, 2.96 MBq) in PBS, pH 7.4. The resulting solutions (n = 3) were incubated at 37 °C for 7 days in a thermomixer. Dissociation of 89Zr from 89Zr-complexes was monitored by radio-TLC at 2 h, 1 d, 4 d and 7 d time point. All studies were performed in triplicate.

[3] = In vitro serum stability (radio-ITLC); type: in vitro ADME; conditions: 37 C, after 7 days
Experimental: In vitro serum stability. In vitro serum stability was carried out by adding 10 µL of each 89Zr-labeled complex (70 μCi, 2.59 MBq) to 500 µL of human serum. The solutions (n=4) were incubated at 37 °C for 7 days and were analyzed daily for 1 week by radio -TLC using Varian ITLC-SA strips and 0.1 M EDTA (pH 5) as the mobile phase and gamma counting using an energy window of 500-1500 keV and standard protocols . Serum samples were also analyzed after 7 days by size exclusion chromatography (SEC) using a Superdex 200 10/300 GLTM column (GE Healthcare Life Sciences, Piscataway, NJ) and phosphate buffered saline (PBS) as eluent with a flow rate of 0.5 mL/min.
Figure S30. Radio-ITLC of 89Zr-DOTA solution in human serum at 37 °C after 0 h (a) and 7 days (b). […]

[4] = mice, intravenous, 72 h post-injection

## O=C1CN2CCN3CCN4CCN(CC2)CC(=O)[O][89Zr]([O]1)([O]C(=O)C3)[O]C(=O)C4 [89Zr-DOTA]
[1]; 100-, 500-, and 1000-fold excess of EDTA at pH 5 or pH 7 over 7 days
  Transchelation in EDTA challenge: did not undergo transchelation
[1]; EDTA 100-fold, pH 5.0, 37 C, 1 h
  % Intact of 89Zr-complexes: 100%
[1]; EDTA 100-fold, pH 5.0, 37 C, 1 d
  % Intact of 89Zr-complexes: 100%
[1]; EDTA 100-fold, pH 5.0, 37 C, 3 d
  % Intact of 89Zr-complexes: 100%
[1]; EDTA 100-fold, pH 5.0, 37 C, 5 d
  % Intact of 89Zr-complexes: 100%
[1]; EDTA 100-fold, pH 5.0, 37 C, 7 d
  % Intact of 89Zr-complexes: 100%
[1]; EDTA 100-fold, pH 7.0, 37 C, 1 h
  % Intact of 89Zr-complexes: 100%
[1]; EDTA 100-fold, pH 7.0, 37 C, 1 d
  % Intact of 89Zr-complexes: 100%
[1]; EDTA 100-fold, pH 7.0, 37 C, 3 d
  % Intact of 89Zr-complexes: 100%
[1]; EDTA 100-fold, pH 7.0, 37 C, 5 d
  % Intact of 89Zr-complexes: 100%
[1]; EDTA 100-fold, pH 7.0, 37 C, 7 d
  % Intact of 89Zr-complexes: 100%
[1]; EDTA 500-fold, pH 5.0, 37 C, 1 h
  % Intact of 89Zr-complexes: 100%
[1]; EDTA 500-fold, pH 5.0, 37 C, 1 d
  % Intact of 89Zr-complexes: 100%
[1]; EDTA 500-fold, pH 5.0, 37 C, 3 d
  % Intact of 89Zr-complexes: 100%
[1]; EDTA 500-fold, pH 5.0, 37 C, 5 d
  % Intact of 89Zr-complexes: 100%
[1]; EDTA 500-fold, pH 5.0, 37 C, 7 d
  % Intact of 89Zr-complexes: 100%
[1]; EDTA 500-fold, pH 7.0, 37 C, 1 h
  % Intact of 89Zr-complexes: 100%
[1]; EDTA 500-fold, pH 7.0, 37 C, 1 d
  % Intact of 89Zr-complexes: 100%
[1]; EDTA 500-fold, pH 7.0, 37 C, 3 d
  % Intact of 89Zr-complexes: 100%
[1]; EDTA 500-fold, pH 7.0, 37 C, 5 d
  % Intact of 89Zr-complexes: 100%
[1]; EDTA 500-fold, pH 7.0, 37 C, 7 d
  % Intact of 89Zr-complexes: 100%
[1]; EDTA 1000-fold, pH 5.0, 37 C, 1 h
  % Intact of 89Zr-complexes: 100%
[1]; EDTA 1000-fold, pH 5.0, 37 C, 1 d
  % Intact of 89Zr-complexes: 100%
[1]; EDTA 1000-fold, pH 5.0, 37 C, 3 d
  % Intact of 89Zr-complexes: 100%
[1]; EDTA 1000-fold, pH 5.0, 37 C, 5 d
  % Intact of 89Zr-complexes: 100%
[1]; EDTA 1000-fold, pH 5.0, 37 C, 7 d
  % Intact of 89Zr-complexes: 100%
[1]; EDTA 1000-fold, pH 7.0, 37 C, 1 h
  % Intact of 89Zr-complexes: 100%
[1]; EDTA 1000-fold, pH 7.0, 37 C, 1 d
  % Intact of 89Zr-complexes: 100%
[1]; EDTA 1000-fold, pH 7.0, 37 C, 3 d
  % Intact of 89Zr-complexes: 100%
[1]; EDTA 1000-fold, pH 7.0, 37 C, 5 d
  % Intact of 89Zr-complexes: 100%
[1]; EDTA 1000-fold, pH 7.0, 37 C, 7 d
  % Intact of 89Zr-complexes: 100%
Biodistribution studies; 24 h, current study
  Blood: 0.001±0.000 % ID/g
  Bone: 0.036±0.008 % ID/g
  Heart: 0.016±0.004 % ID/g
  Kidney: 0.317±0.054 % ID/g
  Liver: 0.068±0.004 % ID/g
  Muscle: 0.004±0.001 % ID/g
Biodistribution studies; [4]
  Radioactivity in blood: 0.0003 ± 0.001 % ID per g and 0.0003 ± 0.0008 % ID per g
  Radioactivity in bone: 0.025 ± 0.009 % ID per g
  Radioactivity in kidney: 0.078 ± 0.009 % ID per g
  Radioactivity in liver: 0.021 ± 0.002 % ID per g
Biodistribution studies; mice, time points up to 72 h
  Radioactivity retention in bone tissue over time: remained low
[2]; Co2+, 2 h
  % Intact of 89Zr-complexes: 100%
[2]; Co2+, 1 d
  % Intact of 89Zr-complexes: 100%
[2]; Co2+, 4 d
  % Intact of 89Zr-complexes: 100%
[2]; Co2+, 7 d
  % Intact of 89Zr-complexes: 100%
[2]; Cu2+, 2 h
  % Intact of 89Zr-complexes: 100%
[2]; Cu2+, 1 d
  % Intact of 89Zr-complexes: 100%
[2]; Cu2+, 4 d
  % Intact of 89Zr-complexes: 100%
[2]; Cu2+, 7 d
  % Intact of 89Zr-complexes: 100%
[2]; Fe3+, 2 h
  % Intact of 89Zr-complexes: 100%
[2]; Fe3+, 1 d
  % Intact of 89Zr-complexes: 100%
[2]; Fe3+, 4 d
  % Intact of 89Zr-complexes: 100%
[2]; Fe3+, 7 d
  % Intact of 89Zr-complexes: 100%
[2]; Ga3+, 2 h
  % Intact of 89Zr-complexes: 100%
[2]; Ga3+, 1 d
  % Intact of 89Zr-complexes: 100%
[2]; Ga3+, 4 d
  % Intact of 89Zr-complexes: 100%
[2]; Ga3+, 7 d
  % Intact of 89Zr-complexes: 100%
[2]; Gd3+, 2 h
  % Intact of 89Zr-complexes: 100%
[2]; Gd3+, 1 d
  % Intact of 89Zr-complexes: 100%
[2]; Gd3+, 4 d
  % Intact of 89Zr-complexes: 100%
[2]; Gd3+, 7 d
  % Intact of 89Zr-complexes: 100%
[2]; Mg2+, 2 h
  % Intact of 89Zr-complexes: 100%
[2]; Mg2+, 1 d
  % Intact of 89Zr-complexes: 100%
[2]; Mg2+, 4 d
  % Intact of 89Zr-complexes: 100%
[2]; Mg2+, 7 d
  % Intact of 89Zr-complexes: 100%
[2]; Zn2+, 2 h
  % Intact of 89Zr-complexes: 100%
[2]; Zn2+, 1 d
  % Intact of 89Zr-complexes: 100%
[2]; Zn2+, 4 d
  % Intact of 89Zr-complexes: 100%
[2]; Zn2+, 7 d
  % Intact of 89Zr-complexes: 100%
[2]; excess metal salts in aqueous buffer, over the 7 day experiment
  Demetallation in metal competition: no demetallation
[3]
  Radio-ITLC peak of complex in human serum: 100%
